# Several values for one entry are separate records, joined by “and”; a condition that tells them apart may be missing. Identical values can stand only once.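 Step 1: Grow cells in 96-well plates. Step 2: Expose to compound for 48 hours at 5 concentrations. Step 3: Interpolate endpoints linearly; if unreached, use highest concentration. GI50 = concentration required for 50% inhibition of growth. TGI: total growth inhibition.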
# Tested on: MDA-MB-468 breast
# Experiment: NCI tumour cell line growth inhibition, 48 h
SMILES,GI50,TGI
CCCCCCCCCCNCCSS(=O)(=O)O,2.45 µM,6.28 µM
COc1ccc(C2C(C#N)=C(N)Oc3c2sc2c(Br)cccc32)cc1 (configuration not stated),1.86 µM,5.55 µM
Cc1nc2sc3c(N)ncnc3c2c(C)c1C,> 25 µM,> 25 µM
Cn1c(=O)c(Oc2ccc(F)cc2F)cc2cnc(N[C@@H]3CCOC3)nc21,> 25 µM,> 25 µM
c1ccc(-c2n(Cc3ccc4ccccc4c3)c3ccccc3[n+]2Cc2ccc3ccccc3c2)cc1,0.134 µM,0.703 µM
CCN(CC)c1ccc(-c2cc(-c3cc(OC)c(OC)c(OC)c3)nc(N3CCC(O)CC3)c2C#N)cc1,0.987 µM,3.21 µM
C=C1C(=O)O[C@H]2[C@H]1CC/C(COC(=O)/C=C\C(=O)NCc1ccc(Cn3c(=O)sn(CCI)c3=O)cc1)=C\CC[C@@]1(C)O[C@@H]21,2.39 µM,5.85 µM
COc1ccc(S(=O)(=O)Nc2c(/C=C\c3cc(OC)c(OC)c(OC)c3)ccc(OC)c2O)cc1,0.0439 µM,17.6 µM
Clc1cccc(CNc2c3ccccc3nc3ccccc23)c1,1.28 µM,3.13 µM
COc1cc2ncnc(Nc3ccc(Oc4ccnc(C)c4)c(C)c3)c2cc1NC(=O)CC1CCSS1 (configuration not stated),0.784 µM,1.73 µM
O=C1Nc2ccccc2/C1=C\c1nc(-c2ccccc2F)n2ccccc12,1.54 µM,5.51 µM
O=C1Cc2cc(CCn3cncn3)c(Cl)cc2N1,2.18 µM,9.54 µM
COc1ccc(-c2cc(-c3ccc(Cl)cc3)nc(NCCCCNc3ccnc4cc(Cl)ccc34)n2)cc1,1.72 µM,4.3 µM
Cc1ccc(Cl)c(NS(=O)(=O)c2ccc(-c3cnc(C4CC4)o3)cc2)c1,0.0452 µM,7.11 µM
C#C[C@@]1(O)[C@@H](CO)O[C@@H](n2cc(C(F)(F)F)c3c(N)ncnc32)[C@@H]1O,0.28 µM,1.9 µM
O=C(Nc1cc(F)c(F)cc1C(=O)O)c1ccc(-n2ccnc2)nn1,> 100 µM,> 100 µM
N=C(N)c1ccc(-c2ccc(-c3ccc4ccccc4c3)s2)s1,2.38 µM,5.2 µM
COc1ccccc1[As]=[As]c1ccccc1OC (configuration not stated),0.0199 µM,0.0474 µM
CCOc1ccc(C(C[N+](=O)[O-])Sc2ccccc2N)cc1 (configuration not stated),2.11 µM,4.79 µM
CNC(=O)c1c(F)cccc1Nc1nc(Nc2cc3c(cc2OC)CCN3C(=O)CN(C)C)nc2[nH]ccc12,2.34 µM,8.85 µM
Clc1ccc2c(c1)N(C1CCCN(Cc3ccccc3)C1)c1ccccc1S2 (configuration not stated),2.69 µM,9.51 µM

SMILES,GI50,TGI
Oc1[nH]c2ccccc2c1/C=c1/ccc2c(c1)N=C(c1ccc(C(F)(F)F)cc1)N=2,2.39 µM,14.7 µM
CC[C@H](C)[C@H](NC(=O)[C@H]1CCCCN1C)C(=O)N(C)[C@H](C[C@@H](OC(C)=O)c1cccc(C(=O)N[C@@H](Cc2ccccc2)C[C@H](C)C(=O)O)n1)C(C)C,0.000353 µM and 0.0025 µM,
CCC(=O)N1C/C(=C/c2ccc(Br)cc2)C(=O)/C(=C/c2ccc(Br)cc2)C1,0.371 µM,1.23 µM
CN(C)Cc1ccc(NC(=O)c2cncc(C#Cc3cnc(N)c4ncccc34)c2)cc1F,7.72 µM,25.7 µM
Nc1cc(F)ccc1NC(=O)c1ccc(NC(=O)C/C=C/c2cccnc2)cn1,0.911 µM,2.5 µM
NCCCNc1nc2ccccc2c2c(=O)c3cccc(Cl)c3sc12,0.837 µM,2.25 µM
Fc1ccc(-c2nn3ccccc3c2-c2ccncc2)cc1,11 µM,> 25 µM
Nc1ncc(-c2ccc3ncnc(N4CCc5ccc(Cl)cc54)c3c2)cc1C(F)(F)F,0.299 µM,2.68 µM
CS(=O)(=O)c1cccc(Nc2ncc3cc(-c4ccccc4Cl)ccc3n2)c1,2.07 µM,19.6 µM
CCN1C(=O)N(CC)C2C1NN=c1s/c(=C3\C(=O)N(C4CCCC4)c4ccccc43)c(=O)n12 (configuration not stated),0.325 µM,2.45 µM
c1ccc(Oc2ccc(Nc3ncc(-c4ccccc4)o3)cc2)cc1,> 25 µM,> 25 µM
CCN(CC)CCN1c2nc3ccccc3cc2Sc2cc3ccccc3nc21,1.79 µM,5.33 µM
O=C(NCCOCCOCCOCCNC(=O)c1cc2c(o1)C(=O)c1ccccc1C2=O)NC12CC3CC(CC(C3)C1)C2,1.08 µM,4.37 µM
COc1cc(-c2nc3ccccc3o2)cc(CN2CCCCC2)c1O,3.24 µM,22.8 µM
O=C(/C=C/c1ccccn1)c1ccc(OCc2nnc(-c3ccc(Cl)cc3)o2)cc1,1.71 µM,3.56 µM
CCCCOc1ccc(/C=N/Nc2cc(C)nc3ccc(Br)cc23)cc1,1.67 µM,3.22 µM
COc1ccc(C(=O)c2cc3c(N)c(C(=O)Nc4cccc(Br)c4C)sc3nc2C)cc1,0.0404 µM,
N#Cc1nc(C#N)c(Sc2ccccc2)c(Sc2ccccc2)c1Sc1ccccc1,1.91 µM,5.8 µM
Cn1cc(C2=C(c3cn(CCCN)c4ccccc34)C(=O)NC2=O)c2ccccc21,3.7 µM,7.94 µM
COc1ccc2c(O)c(/C=C3\N=Nc4ncccc43)oc2c1C[C@@H]1CCNC[C@H]1F,0.308 µM,1.43 µM
C=CCNC1=C2C[C@@H](C)C[C@H](OC)[C@H](O)[C@@H](C)/C=C(\C)[C@H](OC(N)=O)[C@@H](OC)/C=C\C=C(/C)C(=O)NC(=CC1=O)C2=O,0.209 µM,1.83 µM

# From PubChem BioAssay (NCI)
